Assay results taken from PubChem BioAssay (NCI).
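Test compounds were applied to cells in 96-well plates for 48 hours at 5 doses. GI50: concentration for 50% inhibition of growth. TGI: concentration producing complete growth inhibition.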

Key:
Experiment in all cases: NCI-60 cell line screen, 48 h
[1] = system: HCT-15 colon
[2] = system: KM12 colon
[3] = system: DU-145 prostate
[4] = system: TK-10 renal
[5] = system: HS 578T breast
[6] = system: SF-295 CNS
[7] = system: SN12C renal
[8] = system: IGROV1 ovarian
[9] = system: NCI-H460 lung
[10] = system: CCRF-CEM leukemia
[11] = system: U251 CNS
[12] = system: A549 NSCLC
[13] = system: SK-MEL-5 melanoma
[14] = system: RXF 393 renal
[15] = system: 786-0 renal
[16] = system: UACC-62 melanoma
[17] = system: NCI-H226 lung
[18] = system: PC-3 prostate
[19] = system: MCF7 breast
[20] = system: A498 renal
[21] = system: HOP-62 NSCLC
[22] = system: NCI/ADR-RES ovarian
[23] = system: UO-31 renal
[24] = system: MDA-MB-231 breast
[25] = system: OVCAR-8 ovarian
[26] = system: RPMI-8226 leukemia
[27] = system: OVCAR-3 ovarian
[28] = system: SNB-19 CNS
[29] = system: SK-MEL-2 melanoma
[30] = system: SW-620 colon
[31] = system: ACHN renal
[32] = system: T-47D breast
[33] = system: SNB-75 CNS
[34] = system: SR leukemia
[35] = system: SK-OV-3 ovarian
[36] = system: BT-549 breast
[37] = system: K-562 leukemia
[38] = system: HOP-92 NSCLC
[39] = system: NCI-H522 lung

Compound O=C1/C(=C/c2ccc([N+](=O)[O-])s2)Oc2cc(Cl)ccc21 has a GI50 [1] of 276 nM, a TGI [1] of 1120 nM and a GI50 [2] of 758 nM. For the same compound, the TGI [2] was 4.56 µM, the GI50 [3] was 3.81 µM and the TGI [3] was > 100 µM. The GI50 [4] was 8.27 µM, the TGI [4] was > 21.1 µM and the GI50 [5] was 519 nM. For the same compound, the TGI [5] was 5.43 µM, the GI50 [6] was 4.46 µM and the TGI [6] was > 100 µM. For the same compound, the GI50 [7] was 2360 nM, the TGI [7] was > 100 µM and the GI50 [8] was 941 nM. For the same compound, the TGI [8] was 3.61 µM, the GI50 [9] was 1840 nM and the TGI [9] was > 100 µM. For the same compound, the GI50 [10] was 325 nM, the TGI [10] was 1480 nM and the GI50 [11] was 1020 nM. For the same compound, the TGI [11] was 2210 nM, the GI50 [12] was 2670 nM and the TGI [12] was > 100 µM. It also gave a GI50 [13] of 1200 nM, a TGI [13] of 2570 nM and a GI50 [14] of 1040 nM. The TGI [14] was 2630 nM, the GI50 [15] was 2900 nM and the TGI [15] was 7.35 µM. The GI50 [16] was 998 nM, the TGI [16] was 3.14 µM and the GI50 [17] was 3.83 µM. The TGI [17] was > 21.8 µM, the GI50 [18] was 387 nM and the TGI [18] was 1750 nM. For the same compound, the GI50 [19] was 944 nM, the TGI [19] was > 100 µM and the GI50 [20] was 29.8 µM. For the same compound, the TGI [20] was > 85.2 µM, the GI50 [21] was 7.9 µM and the TGI [21] was > 100 µM. For the same compound, the GI50 [22] was 3.02 µM, the TGI [22] was > 100 µM and the GI50 [23] was 317 nM. The TGI [23] was 1220 nM, the GI50 [24] was 404 nM and the TGI [24] was 1750 nM. The GI50 [25] was 469 nM, the TGI [25] was 2590 nM and the GI50 [26] was 382 nM. For the same compound, the TGI [26] was 2230 nM, the GI50 [27] was 325 nM and the TGI [27] was 898 nM. For the same compound, the GI50 [28] was 1720 nM, the TGI [28] was 4.52 µM and the GI50 [29] was 1450 nM. For the same compound, the TGI [29] was 3.33 µM, the GI50 [30] was 217 nM and the TGI [30] was 524 nM. The GI50 [31] was 475 nM, the TGI [31] was 1840 nM and the GI50 [32] was 1500 nM. The TGI [32] was > 100 µM, the GI50 [33] was 2040 nM and the TGI [33] was 11.6 µM. The GI50 [34] was 303 nM, the TGI [34] was 1240 nM and the GI50 [35] was 23.5 µM. For the same compound, the TGI [35] was > 100 µM, the GI50 [36] was 698 nM and the TGI [36] was 2090 nM. The GI50 [37] was 296 nM, the TGI [37] was 1460 nM and the GI50 [38] was 631 nM. It also gave a TGI [38] of 2530 nM, a GI50 [39] of 250 nM and a TGI [39] of 713 nM.
